One data set relates to MHCC97L cells. In words: MTT cell viability assay and drug interaction analysis. In kind it is cell-based, human. Particulars: single drug. A general note: Formazan colour is commonly taken as a measure of viable cells.
The test system of a further data set is pancreatic cancer cells. As to conditions: cited from earlier work.
The test system of a further data set is NMDAR subunits. As to conditions: cited from earlier work.
Data set [1] has as its system HCC patients. As to conditions: phase III BRISK-PS, secondary treatment; cited from earlier work.
The subject of data set [2] is HCC patients. Particulars: phase III, first line; cited from earlier work.
In data set [3] the test system is HCC patients. Particulars: phase II, cited from earlier work.
For another data set, the system named is advanced HCC patients. As to conditions: 28 patients; cited from earlier work.
Data set [4] has as its system HCC patients. As to conditions: single arm phase II; cited from earlier work.
Data set [5] relates to HCC patients. As to conditions: phase III versus sorafenib; cited from earlier work.

Here are results for five compounds from patent US20230355596A1, “COMPOSITIONS AND METHODS OF USING NMDAR INHIBITORS AND KINASE INHIBITORS TO TREAT LIVER CANCER” (The University of Hong Kong, priority 2022, published 2023).

Read-outs that look alike come from different tables or passages of the source.

As to `C[C@]12N[C@H](Cc3ccccc31)c1ccccc12` [MK-801, Dizocilpine (MK-801)], the “HCC growth, NMDAR inhibitor alone” value in the data set with MHCC97L cells is reported as “did not significantly suppress”. Moreover, in the data set on pancreatic cancer cells, the “tumor growth and invasiveness of pancreatic cancer cells” value was “reduced tumor growth and invasiveness”. In the data set with NMDAR subunits, the NMDAR subunit selectivity result is “blocks all NMDAR subunits in a non-selective manner”; the “toxicity / safety as therapeutic agent” value is “poses high toxicity and is less tolerated”.
Regarding `Cc1cc2c(F)c(Oc3ncnn4cc(OC[C@@H](C)O)c(C)c34)ccc2[nH]1` [brivanib], the “median length of overall survival” value in the data set on HCC patients [1] was 9.4 months. Further, in the data set on HCC patients [2], the Median survival is recorded as 9.5 months and the discontinuation rate is listed as 43%. Moreover, the median overall survival with HCC patients [3] (first line) is listed as 10 months. Further, the median overall survival with HCC patients [3] (second line) is 9.5 months.
In the case of `CO[C@H]1C[C@@H]2CC[C@@H](C)[C@@](O)(O2)C(=O)C(=O)N2CCCC[C@H]2C(=O)O[C@H]([C@H](C)C[C@@H]2CC[C@@H](OCCO)[C@H](OC)C2)CC(=O)[C@H](C)/C=C(\C)[C@@H](O)[C@@H](OC)C(=O)[C@H](C)C[C@H](C)/C=C/C=C/C=C/1C` [everolimus], in the data set with advanced HCC patients, the “median progression free survival” value is reported as 3.8 months and the overall survival was 8.4 months.
For `Cc1ccc(F)c(NC(=O)Nc2ccc(-c3cccc4[nH]nc(N)c34)cc2)c1` [linifanib], in the data set on HCC patients [4], the safety profile entry was “acceptable safety profile”.
In the case of `CCN(CC)CCNC(=O)c1c(C)[nH]c(/C=C2\C(=O)Nc3ccc(F)cc32)c1C` [sunitinib], the trial outcome with HCC patients [5] was “terminated early due to increased side effects and futility concerns”.
